`O=C(Cn1cnnn1)N[C@@H]1C(=O)N2C(C(=O)O)=C(CSc3nncs3)CS[C@H]12` gave a solubility (mole fraction) (in acetone, 278.15 K) of 0.00153, a solubility (mole fraction) (in acetone, 283.15 K) of 0.00156 and a solubility (mole fraction) (in acetone, 288.15 K) of 0.00161. The solubility (mole fraction) (in acetone, 293.15 K) was 0.00165, the solubility (mole fraction) (in acetone, 298.15 K) was 0.0017 and the solubility (mole fraction) (in acetone, 303.15 K) was 0.00184. The solubility (mole fraction) (in acetone, 308.15 K) was 0.00193, the solubility (mole fraction) (in acetone, 313.15 K) was 0.0023 and the solubility (mole fraction) (in acetonitrile, 278.15 K) was 0.000124. For the same molecule, the solubility (mole fraction) (in acetonitrile, 283.15 K) was 0.000137, the solubility (mole fraction) (in acetonitrile, 288.15 K) was 0.000159 and the solubility (mole fraction) (in acetonitrile, 293.15 K) was 0.000164. For the same molecule, the solubility (mole fraction) (in acetonitrile, 298.15 K) was 0.000184, the solubility (mole fraction) (in acetonitrile, 303.15 K) was 0.000219 and the solubility (mole fraction) (in acetonitrile, 308.15 K) was 0.000253. The solubility (mole fraction) (in acetonitrile, 313.15 K) was 0.000284, the solubility (mole fraction) (in ethanol, 278.15 K) was 4.85e-05 and the solubility (mole fraction) (in ethanol, 283.15 K) was 5.92e-05. The solubility (mole fraction) (in ethanol, 288.15 K) was 6.49e-05, the solubility (mole fraction) (in ethanol, 293.15 K) was 7.26e-05 and the solubility (mole fraction) (in ethanol, 298.15 K) was 9.45e-05. For the same molecule, the solubility (mole fraction) (in ethanol, 303.15 K) was 0.000104, the solubility (mole fraction) (in ethanol, 308.15 K) was 0.000122 and the solubility (mole fraction) (in ethanol, 313.15 K) was 0.000152. It also gave a solubility (mole fraction) (in ethyl acetate, 278.15 K) of 0.000188, a solubility (mole fraction) (in ethyl acetate, 283.15 K) of 0.000217 and a solubility (mole fraction) (in ethyl acetate, 288.15 K) of 0.000242. For the same molecule, the solubility (mole fraction) (in ethyl acetate, 293.15 K) was 0.0003, the solubility (mole fraction) (in ethyl acetate, 298.15 K) was 0.000342 and the solubility (mole fraction) (in ethyl acetate, 303.15 K) was 0.000371. The solubility (mole fraction) (in ethyl acetate, 308.15 K) was 0.000433, the solubility (mole fraction) (in ethyl acetate, 313.15 K) was 0.00053 and the solubility (mole fraction) (in isopropanol, 278.15 K) was 6.43e-05. The solubility (mole fraction) (in isopropanol, 283.15 K) was 6.82e-05, the solubility (mole fraction) (in isopropanol, 288.15 K) was 7.37e-05 and the solubility (mole fraction) (in isopropanol, 293.15 K) was 8.59e-05. It also gave a solubility (mole fraction) (in isopropanol, 298.15 K) of 0.000104, a solubility (mole fraction) (in isopropanol, 303.15 K) of 0.000114 and a solubility (mole fraction) (in isopropanol, 308.15 K) of 0.000134. The solubility (mole fraction) (in isopropanol, 313.15 K) was 0.000152, the solubility (mole fraction) (in methanol, 278.15 K) was 1.2e-05 and the solubility (mole fraction) (in methanol, 283.15 K) was 1.5e-05. It also gave a solubility (mole fraction) (in methanol, 288.15 K) of 1.92e-05, a solubility (mole fraction) (in methanol, 293.15 K) of 2.43e-05 and a solubility (mole fraction) (in methanol, 298.15 K) of 3.26e-05. It also gave a solubility (mole fraction) (in methanol, 303.15 K) of 4.34e-05, a solubility (mole fraction) (in methanol, 308.15 K) of 5.48e-05 and a solubility (mole fraction) (in methanol, 313.15 K) of 6.84e-05. It also gave a solubility (mole fraction) (in water, 278.15 K) of 1.04e-05, a solubility (mole fraction) (in water, 283.15 K) of 1.27e-05 and a solubility (mole fraction) (in water, 288.15 K) of 1.64e-05. The solubility (mole fraction) (in water, 293.15 K) was 1.92e-05, the solubility (mole fraction) (in water, 298.15 K) was 2.51e-05 and the solubility (mole fraction) (in water, 303.15 K) was 3.24e-05. It also gave a solubility (mole fraction) (in water, 308.15 K) of 4.27e-05 and a solubility (mole fraction) (in water, 313.15 K) of 5.32e-05.

Reference: BigSolDB 2.1
